Biological target: Human PDE10A1 (Homo sapiens, UniProt Q9Y233)
Experiment: hPDE10A1 enzyme inhibition ([3H]-cAMP hydrolysis, scintillation)
Assay type: biochemical
Conditions: Human PDE10A1, [3H]-cAMP substrate; read-out: hPDE10A1 IC50 Band
Description: hPDE10A1 Enzyme Activity: 50 μl samples of serially diluted Human PDE10A1 enzyme were incubated with 50 μl of [^3H]-cAMP for 20 minutes (at 37° C.). Reactions were carried out in Greiner 96 deep well 1 ml master-block. The enzyme was diluted in 20 mM Tris HCl pH7.4 and [^3H]-cAMP was diluted in 10 mM MgCl2, 40 mM Tris.HCl pH 7.4. The reaction was terminated by denaturing the PDE enzyme (at 70° C.) after which [^3H]-5′-AMP was converted to [^3H]-adenosine by adding 25 μl snake venom nucleotidase and incubating for 10 minutes (at 37° C.). Adenosine, being neutral, was separated from charged cAMP or AMP by the addition of 200 μl Dowex resin. Samples were shaken for 20 minutes then centrifuged for 3 minutes at 2,500 r.p.m. 50 μl of supernatant was removed and added to 200 μl of MicroScint-20 in white plates (Greiner 96-well Optiplate) and shaken for 30 minutes before reading on Perkin Elmer TopCount Scintillation Counter.
hPDE10A1 Enzyme Inhibition: To check inhibition profile 11 μl of serially diluted inhibitor was added to 50 μl of [^3H]-cAMP and 50 ul of diluted Human PDE10A1 and assay was carried out as in the enzyme activity assay. Data was analysed using Prism software (GraphPad Inc).

Sequence of Human PDE10A1 (Q9Y233 1-779 isoform Q9Y233-1): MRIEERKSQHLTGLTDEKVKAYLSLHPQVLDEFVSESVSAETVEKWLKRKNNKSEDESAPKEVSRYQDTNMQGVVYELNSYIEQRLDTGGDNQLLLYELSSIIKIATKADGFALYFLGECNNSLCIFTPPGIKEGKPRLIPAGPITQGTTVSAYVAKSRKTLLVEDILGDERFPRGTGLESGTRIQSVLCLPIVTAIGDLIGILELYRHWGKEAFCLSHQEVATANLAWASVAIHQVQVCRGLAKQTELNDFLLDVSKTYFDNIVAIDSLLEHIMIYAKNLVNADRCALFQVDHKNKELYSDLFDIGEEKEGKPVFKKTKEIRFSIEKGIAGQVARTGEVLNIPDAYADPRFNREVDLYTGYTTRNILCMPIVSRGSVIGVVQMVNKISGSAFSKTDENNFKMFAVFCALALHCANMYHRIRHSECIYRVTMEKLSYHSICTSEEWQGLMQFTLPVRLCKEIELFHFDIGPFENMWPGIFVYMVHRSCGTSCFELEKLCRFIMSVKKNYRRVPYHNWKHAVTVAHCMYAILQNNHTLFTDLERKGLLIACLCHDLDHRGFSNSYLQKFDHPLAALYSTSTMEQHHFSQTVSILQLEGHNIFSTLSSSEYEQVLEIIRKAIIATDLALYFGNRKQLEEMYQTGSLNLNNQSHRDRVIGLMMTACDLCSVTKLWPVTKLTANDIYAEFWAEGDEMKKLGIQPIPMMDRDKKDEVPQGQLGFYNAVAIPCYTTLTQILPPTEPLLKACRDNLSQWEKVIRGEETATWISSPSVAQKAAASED

`CC1(C)OC(c2ccc(C#N)cc2)=C(c2ccc(OCc3cn4ccccc4n3)cc2)C1=O` [4-(3-(4-(imidazo[1,2-a]pyridin-2-ylmethoxy)phenyl)-5,5-dimethyl-4-oxo-4,5-dihydrofuran-2-yl)benzonitrile] and `COc1ccc(C2=C(c3ccc(OCc4cn5ccccc5n4)cc3)C(=O)C(C)(C)O2)cc1` [4-(4-(imidazo[1,2-a]pyridin-2-ylmethoxy)phenyl)-5-(4-methoxyphenyl)-2,2-dimethylfuran-3(2H)-one] cannot be ordered by IC50: at most 10 nM for the first, at most 10 nM for the second.

`COc1ccc(C2=C(c3ccc(OCc4ncc(C)cc4C)cc3)C(=O)C(C)(C)O2)cc1` [4-(4-((3,5-dimethylpyridin-2-yl)methoxy)phenyl)-5-(4-methoxyphenyl)-2,2-dimethylfuran-3(2H)-one] and `COc1ccc(C2=C(c3ccc(OCc4ccc(C)cn4)cc3)C(=O)C(C)(C)O2)cc1` [5-(4-methoxyphenyl)-2,2-dimethyl-4-(4-((5-methylpyridin-2-yl)methoxy)phenyl)furan-3(2H)-one] cannot be ordered by IC50: at most 10 nM for the first, at most 10 nM for the second.

`COc1ccc(C2=C(c3ccc(OCc4nc5ccccn5c4Cl)cc3)C(=O)C(C)(C)O2)cc1` [4-(4-((3-chloroimidazo[1,2-a]pyridin-2-yl)methoxy)phenyl)-5-(4-methoxyphenyl)-2,2-dimethylfuran-3(2H)-one] and `COc1ccc(C2=C(c3ccc(OCc4nc5ccccn5c4C)cc3)C(=O)C(C)(C)O2)cc1` [5-(4-Methoxyphenyl)-2,2-dimethyl-4-(4-((3-methylimidazo[1,2-a]pyridin-2-yl)methoxy)phenyl)furan-3(2H)-one] cannot be ordered by IC50: at most 10 nM for the first, 10 to 50 nM for the second.

`COc1ccc(C2=C(c3ccc(OCc4cn5cc(Cl)ccc5n4)cc3)C(=O)C(C)(C)O2)cc1` [4-(4-((6-Chloroimidazo[1,2-a]pyridin-2-yl)methoxy)phenyl)-5-(4-methoxyphenyl)-2,2-dimethylfuran-3(2H)-one] and `COc1ccc(C2=C(c3ccc(OCc4cn5nc(Cl)ccc5n4)cc3)C(=O)C(C)(C)O2)cc1` [4-(4-((6-chloroimidazo[1,2-b]pyridazin-2-yl)methoxy)phenyl)-5-(4-methoxyphenyl)-2,2-dimethylfuran-3(2H)-one] cannot be ordered by IC50: at most 10 nM for the first, 10 to 50 nM for the second.

`COc1ccc(C2=C(c3ccc(OCc4cn5ncccc5n4)cc3)C(=O)C(C)(C)O2)cc1` [4-(4-(imidazo[1,2-b]pyridazin-2-ylmethoxy)phenyl)-5-(4-methoxyphenyl)-2,2-dimethylfuran-3(2H)-one] and `COc1ccc(C2=C(c3ccc(OCc4cn5c(C)cccc5n4)cc3)C(=O)C(C)(C)O2)cc1` [5-(4-Methoxyphenyl)-2,2-dimethyl-4-(4-((5-methylimidazo[1,2-a]pyridin-2-yl)methoxy)phenyl)furan-3(2H)-one] cannot be ordered by IC50: at most 10 nM for the first, at most 10 nM for the second.

`COc1ccc(C2=C(c3ccc(OCc4ccc5nccn5n4)cc3)C(=O)C(C)(C)O2)cc1` [4-(4-(imidazo[1,2-b]pyridazin-6-ylmethoxy)phenyl)-5-(4-methoxyphenyl)-2,2-dimethylfuran-3(2H)-one] and `Cc1ccc(COc2ccc(C3=C(c4ccc(C#N)cc4)OC(C)(C)C3=O)cc2)nc1` [4-(5,5-dimethyl-3-(4-((5-methylpyridin-2-yl)methoxy)phenyl)-4-oxo-4,5-dihydrofuran-2-yl)benzonitrile] cannot be ordered by IC50: 10 to 50 nM for the first, at most 10 nM for the second.

Test system: not given
Experiment: not given
Conditions: rats; cited from earlier work

In the case of `COc1ccc(Cc2nccc3cc(OC)c(OC)cc23)cc1OC` [papaverine], the apomorphine induced stereotypes is listed as “reduces”.

For `COc1ccc(Cc2nccc3cc(OC)c(OC)cc23)cc1OC` [papaverine], the haloperidol induced catalepsy is given as “increases”.

In the case of `COc1ccc(Cc2nccc3cc(OC)c(OC)cc23)cc1OC` [papaverine], the “rat brain dopamine levels” value is given as “reduces”.
